Laboratory results reported in PMC4503256 (Biopharmaceutics & drug disposition, 2012).
Where two headings read alike, the source gives them in different places. Marks after values point to notes of the source that are not given here. Each block holds one compound with its values, some of them ahead of it.

Assays:
[1] = In vitro partitioning experiments in two-phase dissolution apparatus; type: physicochemical
[2] = type: physicochemical; conditions: sodium acetate buffer 50 mM, pH 4.5, isotonic; unpublished data
[3] = cited from earlier work
[4] = measured value; cited from earlier work
[5] = cited from earlier work; for Log D: measured value
[6] = measured value; cited from earlier work; remark: listed apart in the source

Best-fit PI for all conditions ([1]; Apparatus 1, experiments 3–6 (pH 1.5–6.3), 77 rpm, range of 2.2–4.8 × 10^−3): 3000 ×10⁻⁶ cm/s
PI × 10^4 (best fit) ([1]; Exp. 3, Fig 3(a), Apparatus 1, pH 1.5, 77 rpm, A/Va 0.42 cm^−1, MT/Va 16.7 μg/ml): 23.71 cm/s × 10^4
PI × 10^4 (best fit) ([1]; Exp. 4, Fig 3(b), Apparatus 1, pH 4.3, 77 rpm, A/Va 0.42 cm^−1, MT/Va 16.7 μg/ml): 30.06 cm/s × 10^4
PI × 10^4 (best fit) ([1]; Exp. 5, Fig 3(c), Apparatus 1, pH 4.4, 77 rpm, A/Va 0.42 cm^−1, MT/Va 16.7 μg/ml): 37.52 cm/s × 10^4
PI × 10^4 (best fit) ([1]; Exp. 6, Fig 3(d), Apparatus 1, pH 6.3, 77 rpm, A/Va 0.42 cm^−1, MT/Va 16.7 μg/ml): 30.81 cm/s × 10^4
PI × 10^4 (best fit) ([1]; Exp. 7, Fig 4(a), Apparatus 2, pH 5.0, 75 rpm, A/Va 0.30 cm^−1, MT/Va 25.0 μg/ml): 19.08 cm/s × 10^4
PI × 10^4 (best fit) ([1]; Exp. 8, Fig 4(b), Apparatus 2, pH 6.8, 75 rpm, A/Va 0.30 cm^−1, MT/Va 50.0 μg/ml): 28.73 cm/s × 10^4
PI × 10^4 (best fit) ([1]; Exp. 9, Fig 4(c), Apparatus 2, pH 6.8, 75 rpm, A/Va 0.30 cm^−1, MT/Va 25.0 μg/ml): 26.85 cm/s × 10^4
Dissolution rates of particles, buffer versus buffer saturated with 1-octanol [2]: no difference
Compound: CC(C)Cc1ccc(C(C)C(=O)O)cc1 (stereo not drawn) [Ibuprofen]
Absorbed in humans ([3]; in vivo): > 99%

Compound: Cc1nccn1CC1CCc2c(c3ccccc3n2C)C1=O (stereo not drawn) [Ondansetron]
Fa (fraction absorbed in vivo), actual ([3]; humans, oral solutions): 1

Compound: CN1C(C(=O)Nc2ccccn2)=C(O)c2ccccc2S1(=O)=O [Piroxicam]
pKa at 37 °C (basic) [4]: 2.3 (basic)^c
Log D ([5]; pH 1.2): pH 1.2: 0.92^f
Apparent partition coefficient ([5]; pH 7.5, 37 °C, ref Yazdanian et al. 27): 0.8
Log D ([5]; pH 7.5): pH 7.5: 0.8^g
Intrinsic solubility at 37 °C [6]: 6.6 × 10^−5f M

Compound: CCCC(CCC)C(=O)O [Valproic acid]
Fa (fraction absorbed in vivo), actual ([3]; humans, oral solutions): 1
ka × 10^4 (first-order absorption rate constant), decon. ([3]; humans, oral solutions, printed value = ka × 10^4): 11.5 s^−1
